The text below walks through data of patent US8927767B2, “Crystalline polymorphs of acetyl-glycine-beta-alanine and process of making the same” (Corum Inc., priority 2013, dated 2015).

The structures appear in SMILES notation.

One data set has as its system age spot. Description: In vivo human study, spot-brightening. Conditions: after 14 days.
A further data set has as its system IL-6. Description: In vitro anti-inflammation study, IL-6 level after UVB exposure. It counts as cell-based. The settings on record: human epidermal keratinocytes after exposure on UVB light.
For data set [1] the following is noted: taught in U.S. patent application Ser. No. 13/128,446; cited from earlier work.
The subject of a further data set is melanin formation. The settings on record: taught in U.S. patent application Ser. No. 13/128,446; cited from earlier work.
The next data set deals with IL8. The data set can be described thus: In vitro anti-inflammation study, IL8 level after UVB exposure. The settings on record: human epidermal keratinocytes after exposure on UVB light. The class given is cell-based.
In data set [2] the test system is tissue model of the human epidermis prepared from cultured human keratinocytes and melanocytes. Description: Ex vivo whitening test in tissue model of the human epidermis. The class given is cell-based. Conditions: 2% of acetyl-glycine-beta-alanine, 9 day.
The nature of data set [3]: Thermal stability study by powder X-ray diffraction. Conditions: 140° C. oven with air circulation for 4 hours. It counts as physicochemical. As to the method: (§1) The procedure of powder X-ray diffraction test used for obtaining FIG. 1, FIG. 2, FIG. 7 and FIG. 8 is described as follows:
(§2) The crystalline polymorphs of acetyl-glycine-beta-alanine was analyzed by an X-ray powder Diffractometer, Bruker D8 Advanced, equipped with a Cu anode (λ=1.540600 Angstrom). X-ray source operated at 40 kV, 40 mA. The measuring 2-theta range was from about 5 to 60 degree and step width was 0.05 degree.
Thermal Stability Study for Both of Crystalline Polymorph A and Crystalline Polymorph B of Acetyl-Glycine-Beta-Alanine:
The crystalline polymorph A of acetyl-glycine-beta-alanine and crystalline polymorph B of acetyl-glycine-beta-alanine were stored at 140° C. oven with air circulation for 4 hours, and then analyzed with powder X-ray diffraction.

Data set [4] can be described thus: Thermodynamic stable crystalline polymorph study: slurry equilibrium. The class given is physicochemical. Conditions: 5 g polymorph A + 5 g polymorph B in isopropanol/water 100 g/10 g; 40 to 45° C. 8 hours, then 25 to 30° C. 48 hours. How it is done:
Thermodynamic Stable Crystalline Polymorph Study: Slurry Equilibrium
Both of 5 grams of crystalline polymorph A and 5 grams of crystalline polymorph B of acetyl-glycine-beta-alanine were put into a flask. 100 grams of isopropanol and 10 grams of water were added into the flask to form a mixture. The mixture was stirred at 40 to 45° C. for 8 hours and then at 25 to 30° C. for 48 hours. The mixture was cooled to 15 to 20° C. and the crystalline was filtered out. The crystalline was dried and analyzed with powder X-ray diffraction and Fourier transform infrared spectrum.

A short description of data set [5]: Long term storage stability by powder X-ray diffraction. It counts as physicochemical. Conditions: room temperature for 1 year without any humidity controlling. As to the method:
as §1, §2
Long term storage stability can be found in both crystalline polymorph A and crystalline polymorph B of acetyl-glycine-beta-alanine. The powder X-ray diffraction pattern of the crystalline polymorph A and crystalline polymorph B are shown as FIG. 1 and FIG. 2, wherein the crystalline polymorph A and crystalline polymorph B were stored at room temperature for 1 year without any humidity controlling.

Data set [6] is described as follows: Solubility study in different solvents (HPLC). The class given is physicochemical. The settings on record: for Solubility: room temperature, 30 min. As to the method: The Solubility Study of Crystalline Polymorph A and Polymorph B of Acetyl-Glycine-Beta-Alanine
According to the theory of thermodynamic of polymorphism, the most thermodynamic stable crystalline polymorph has lowest solubility. The solubility of both of the crystalline polymorph A and polymorph B of acetyl-glycine-beta-alanine were measured in different solvents.
The solubility measurement procedure was described as the following. Prepared a saturated acetyl-glycine-beta-alanine solution with 1 gram of test solvents and then stir it for 30 min at room temperature. Collected the solution through a filter and used HPLC to analyze its solubility. The solubility was represented by mg of the polymorphs/grams of the solvent.

Where [7] appears, read: Ethanol/water: 95/5 (weight ratio).
Setting [8] is: Isopropanol/water: 3/1 (weight ratio).

Regarding `CC(=O)NCC(=O)NCCC(=O)O` [acetyl-glycine-beta-alanine], the “age spot reduction (spot-brightening)” value in the data set on age spot came out at 51.67%. Moreover, the IL-6 level entry with IL-6 is reported as “reduced”. The “color stability in the cosmetic formulation” value in data set [1] was “good color stability”. For the same compound, the inhibiting melanin formation entry with melanin formation is “capable of inhibiting melanin formation”. The IL8 level entry in the data set with IL8 was “reduced”. Besides, the “existing melanin level (whitening efficacy)” value in [2] is −30%.
With `CC(=O)NCC(=O)NCCC(=O)O` [crystalline polymorph A, acetyl-glycine-beta-alanine], the “thermal stability (powder X-ray diffraction pattern)” value in data set [3] is given as “still not changed”. Moreover, in data set [4], the “crystalline form obtained after slurry equilibrium” value is recorded as “the obtained crystalline was crystalline polymorph A”. Moreover, the “long term storage stability (powder X-ray diffraction pattern)” value in data set [5] was “not changed”. In addition, the Solubility in data set [6] (setting [7]) was 18.4 mg/g; in [6] (setting [8]) it was 62.3 mg/g; in [6] (Methanol), 26.5 mg/g; in data set [6] (Water) it was 177.0 mg/g. In addition, in [6] (concluded from lower solubility in various solvents), the “thermodynamic stability (from solubility results)” value is given as “thermodynamically stable”.
`CC(=O)NCC(=O)NCCC(=O)O` [crystalline polymorph B, acetyl-glycine-beta-alanine]: the “thermal stability (powder X-ray diffraction pattern)” value in data set [3] is listed as “changed”. In addition, in data set [5], the “long term storage stability (powder X-ray diffraction pattern)” value was “not changed”. The Solubility in data set [6] (setting [7]) came to 23.9 mg/g; in data set [6] (setting [8]) it was 76.4 mg/g; in data set [6] (Methanol), 32.4 mg/g; in [6] (Water), 223.2 mg/g.
